“And” between values parts separate entries of the source, which are not always exact repeats. Equal values may be shown once. Read-outs that look alike come from different tables or passages of the source.
Legend:
[1] = target: T1, gp43 exo+ (bacteriophage T4 DNA polymerase) (Enterobacteria phage T4, UniProt P04415); details: paired opposite T; cited from earlier work
T1 construct: made in house
T1 sequence (P04415 1-898): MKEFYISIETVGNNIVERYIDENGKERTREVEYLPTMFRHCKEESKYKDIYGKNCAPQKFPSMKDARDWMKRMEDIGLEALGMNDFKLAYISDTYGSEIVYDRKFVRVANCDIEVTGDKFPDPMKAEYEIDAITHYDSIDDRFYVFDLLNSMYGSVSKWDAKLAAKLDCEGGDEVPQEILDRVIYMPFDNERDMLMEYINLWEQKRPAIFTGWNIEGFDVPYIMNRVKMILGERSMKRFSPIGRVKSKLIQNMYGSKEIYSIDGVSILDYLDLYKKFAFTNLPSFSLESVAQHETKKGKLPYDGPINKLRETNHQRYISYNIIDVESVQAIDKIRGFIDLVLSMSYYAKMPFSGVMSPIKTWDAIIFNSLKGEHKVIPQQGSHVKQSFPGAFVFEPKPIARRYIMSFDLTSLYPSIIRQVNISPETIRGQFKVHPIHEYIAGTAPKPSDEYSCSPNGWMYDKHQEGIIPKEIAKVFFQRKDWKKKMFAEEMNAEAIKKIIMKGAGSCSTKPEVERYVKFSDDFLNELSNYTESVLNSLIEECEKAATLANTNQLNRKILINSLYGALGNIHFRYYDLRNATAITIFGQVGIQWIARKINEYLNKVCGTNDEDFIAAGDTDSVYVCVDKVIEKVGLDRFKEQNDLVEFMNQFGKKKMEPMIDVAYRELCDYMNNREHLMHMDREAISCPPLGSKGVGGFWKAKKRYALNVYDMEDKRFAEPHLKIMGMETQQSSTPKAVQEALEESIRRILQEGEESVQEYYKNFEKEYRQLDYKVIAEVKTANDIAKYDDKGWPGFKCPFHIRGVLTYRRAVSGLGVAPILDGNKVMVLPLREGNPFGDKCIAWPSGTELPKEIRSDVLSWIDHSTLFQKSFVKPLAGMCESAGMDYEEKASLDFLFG

[2] = target: T1, gp43 exo+ (bacteriophage T4 DNA polymerase); experiment: Pre-steady-state exonuclease assay (excision of dXMP from primer); assay type: biochemical; details: for kexo: single turnover, 1 μM gp43exo+
[3] = target: T1, gp43 exo+ (bacteriophage T4 DNA polymerase); experiment: Idle turnover measurements with KINSIM simulation; assay type: biochemical
Protocol: DNA (13/20SP-mer or 13/20T-mer; 250 nM) was first preincubated with variable concentrations of 5-NITP (20-200 μM) or 5-PhITP (10-200 μM) in the presence of 30 μM dATP. Due to the nature of the DNA substrate (FIG. 1B), the insertion of dAMP opposite T at position 13 in the template maintains a usable primer template for the insertion of the nonnatural nucleotide opposite the abasic lesion (position 14). In all cases, the reaction was initiated through the addition of 1000 nM DNA gp43 exo^+. Five microliter aliquots of the reaction were quenched into tubes containing 5 μL of 200 mM EDTA at times ranging from 5 to 600 s. The quenched samples were processed as described above and product formation was analyzed using established protocols.
Simulations modeling the observed kinetic time courses for nucleotide insertion and excision were performed by mathematical analyses using KINSIM. A simplified mechanism depicted in FIG. 11 was employed that accounts for the kinetic parameters of interest. These minimally include KD values for each nucleotide, kpol values for their insertion, and kexo, which represents the hydrolytic rate constant. Both the starting reactant concentrations and rate constants were supplied for each step of the mechanism. In all cases, the rate constants were based upon either experimentally determined rate constants or published literature values. The simulated curves were then compared to those experimentally derived to judge how accurately each set of rate constants fit the experimental data. Adjustments to the rate constants were then made until the simulated time courses were nearly identical to the experimental time courses.
Idle turnover is a process in which the DNA polymerase incorporates a dNTP and then excises the inserted dNMP in the absence of the next required nucleotide triphosphate (FIG. 11). This activity provides a more accurate representation of in vivo conditions in which the polymerase should be bound and stalled at the sight of DNA damage. Idle turnover was quantified using a modified gel electrophoresis protocol that monitors the amount of extension (13-mer to 14-mer) and subsequent excision (14-mer to 13-mer) of the DNA as a function of time. All experiments were performed using single turnover reaction conditions to ensure that all DNA was bound with polymerase during the course of the reaction. Under these conditions, the rates in product formation reflect the kinetics of insertion and excision rather than enzyme dissociation from the mispair. In each experiment, the concentration of nonnatural nucleotide was varied from 20 to 200 μM. In addition, a low concentration of 30 μM dATP was used to allow for correct dNMP insertion at position 13-mer, which prevents complete degradation of DNA substrate.
Since single turnover reaction conditions were employed, kinetic steps reflecting enzyme dissociation and rebinding to product DNA are assumed to be negligible. Thus, the rate and amount of 14-mer produced are dependent upon four interrelated parameters. These include the kinetic dissociation constant (KD) for dXTP opposite the lesion (DNAn) (step 2), the rate constant for DNA extension (kpol) (step 3), the rate constant of exonuclease degradation (kexo) (step 5), and the kinetic dissociation constant (KD′) for dXTP opposite the next templating position (DNAn+1) (step 6). Although kpol is a complex function of kinetic rate constants, this value was simplified to combine the kinetic steps encompassing the conformational change prior to phosphoryl transfer, phosphoryl transfer, and the conformational change after phosphoryl transfer. Furthermore, translocation of the enzyme and pyrophosphate release (step 4) are assumed to be rapid.

[4] = system: bacteriophage T4 polymerase; experiment: Calculated discrimination, toxicity index and therapeutic index; assay type: biochemical; details: for toxicity index (abasic DNA) / toxicity index (unmodified DNA): (kpol dNTP/kexo dXTP)(dXTP/dNTP)/(4D); for discrimination (unmodified DNA): ratio of catalytic efficiencies opposite templating nucleobase; for discrimination (abasic DNA): ratio of catalytic efficiencies, dATP versus dXTP
[5] = target: T2, gp43exo− (bacteriophage T4 DNA polymerase) (Enterobacteria phage T4, UniProt P04415, D219A); assay type: biochemical; details: 500 μM analogue; 10 μM dNTPs; unmodified 13/20-mer
[6] = target: T2, gp43exo− (bacteriophage T4 DNA polymerase); experiment: biochemical; assay type: biochemical; details: for inhibition of replication beyond an abasic site: 20 μM analogue, 500 μM dNTPs
[7] = target: T2, gp43exo− (bacteriophage T4 DNA polymerase); assay type: biochemical; details: 50 μM dXTP 30 s, then 1000 μM dGTP
[8] = target: T2, gp43exo− (bacteriophage T4 DNA polymerase); experiment: biochemical; assay type: biochemical
[9] = target: T2, gp43exo− (bacteriophage T4 DNA polymerase); experiment: biochemical; details: for kpol: pseudo-first-order conditions
[10] = target: T2, gp43exo− (bacteriophage T4 DNA polymerase); details: cited from earlier work
[11] = target: T2, gp43exo− (bacteriophage T4 DNA polymerase); details: previously demonstrated, cited from earlier work
[12] = target: T2, gp43exo− (bacteriophage T4 DNA polymerase); details: opposite an abasic site; previously determined values (Table 7 footnotes d, e, f not given); cited from earlier work
[13] = idle turnover opposite an abasic site, computer simulation fit of time courses

In the case of `Nc1ncnc2c1ncn2[C@H]1C[C@H](O)[C@@H](COP(=O)(O)O)O1` [dAMP], the “kexo, published value” [1] is given as 2 s⁻¹, the “rate constant for excision opposite the abasic site faster than opposite T” value ([2]; abasic site versus T) is given as about 40 fold and the kexo ([2]; template abasic site) is given as 28.5±1.1 s^−1 and ≈ 28 s^−1 and 28.5+/−1.1 s^−1. It also gave a kexo ([2]; template nucleoside thymine) of 0.8 ± 0.1 s⁻¹.

For `O=P(O)(O)OP(=O)(O)OP(=O)(O)OC[C@H]1O[C@@H](n2ccc3cc(-c4ccccc4)ccc32)C[C@@H]1O` [5-PhITP, 5-Phenyl-indole-2′-Deoxyribofuranoside 5′-Triphosphate], the “stability of incorporation opposite the abasic site (idle turnover)” value ([3]; 100 μM nucleotide, compared with 100 μM 5-NITP) was “more stably incorporated opposite the abasic site”, the Kd [3, 13] was 20 ± 5 µM and the kexo [3, 13] was 1.0 ± 0.1 S^−1. For the same compound, the kpol [3, 13] was 50 ± 10 S^−1, the “toxicity index (abasic DNA)” value [4] was about 33 and the “toxicity index (unmodified DNA)” value [4] was 0.01-0.05. For the same compound, the “discrimination (unmodified DNA)” value [4] was 460-2500, the “discrimination (abasic DNA)” value [4] was 11.4×10^−5 and 11.4 × 10^−4 and the “inhibition of normal DNA synthesis” value [5] was “Nearly identical results are obtained”. The “inhibition of replication beyond an abasic site” value [6] was “Identical results are obtained”, the IC50 [6] was 10 µM and ~10 µM and the “extension beyond the mispair formed opposite an abasic site” value [7] was “identical results are obtained”. The “amplitude of the burst phase” value [8] was 75 nM, the burst amplitude [8] was 240 ± 6 nM and 220 ± 3 nM and 220 nM and the kcat [8] was 2.2 s⁻¹. The kobs [8] was 37.4 s⁻¹ and 38.4 s⁻¹ and ~38 s⁻¹ and 38.4 ± 2.1 s⁻¹ and 37.4 ± 1.4 s⁻¹, the “kobs calculated from Michaelis-Menten equation” value [8] was 14 s⁻¹ and the kpol [8] was 53 ± 4 s⁻¹. For the same compound, the kpol/KD [8] was 3.8e+06 M⁻¹ s⁻¹, the “observed rate constant of the burst phase (kobs)” value [8] was 9.1 ± 2.1 s⁻¹ and 9 s⁻¹ and the Kd ([8]; KD) was about 10 µM. The Kd ([9]; KD) was about 25 µM, the kpol/KD ([9]; Template A) was 4.0 × 10^3 M^−1S^−1 and the kpol ([9]; Template A) was 0.12 ± 0.01 s⁻¹. For the same compound, the kpol/KD ([9]; Template C) was 6.8 × 10^3 M^−1S^−1, the kpol ([9]; Template C) was 0.19 ± 0.02 s⁻¹ and the kpol/KD ([9]; Template G) was 21.7 × 10^3 M^−1S^−1. The kpol ([9]; Template G) was 0.26 ± 0.02 s⁻¹, the kpol/KD ([9]; Template T) was 6.4 × 10^3 M^−1S^−1 and the kpol ([9]; Template T) was 0.16 ± 0.01 s⁻¹.

For `O=[N+]([O-])c1ccc2c(ccn2[C@H]2C[C@H](O)[C@@H](COP(=O)(O)OP(=O)(O)OP(=O)(O)O)O2)c1` [5-NITP, 5-nitro-1-indolyl-2′-deoxyribose-5′-triphosphate], the Kd ([3]; dXTP opposite the next templating position, computer simulation fit) was 10000 µM, the Kd [3, 13] was 20 µM and the kexo [3, 13] was 10 S^−1 and 10 ± 2 S^−1. The kpol [3, 13] was 100 S^−1 and 100 ± 10 S^−1, the therapeutic index [4] was about 128 and the “toxicity index (abasic DNA)” value [4] was about 6. The “toxicity index (unmodified DNA)” value [4] was 0.047, the “discrimination (unmodified DNA)” value [4] was about 53 and the “discrimination (abasic DNA)” value [4] was 6.1×10^−4. For the same compound, the Kd [10] was 18 µM and ~10 µM, the “catalytic efficiency for insertion opposite an abasic site relative to natural nucleotide (dAMP/dATP), greater” value [10] was 1000 fold and the “incorporation opposite an abasic site favored compared to insertion opposite T (kpol)” value [10] was 140 fold. The kpol [10] was 126 ± 6 s⁻¹, the kpol/KD [10] was 7e+06 M⁻¹ s⁻¹ and the “inhibition of normal DNA synthesis” value [5] was “little effect”. For the same compound, the “inhibition of replication beyond an abasic site” value [6] was “level of 14-mer product remains invariant”, the IC50 [6] was 10 µM and ~10 µM and the “extension beyond the mispair formed opposite an abasic site” value [7] was “cannot elongate beyond the 14-mer product”. The Kd ([11]; independent of templating nucleobase) was about 20 µM, the kpol ([11]; opposite T) was about 0.9 s⁻¹ and the kexo ([2]; template abasic site) was 9.9 ± 0.8 s⁻¹. For the same compound, the kexo ([2]; template nucleoside thymine) was 13.0 ± 1.4 s⁻¹, the Kd [12] was 18 µM and 10 µM and the kpol [12] was 126 s⁻¹ and 126 ± 7 s⁻¹.
